Tests used:
Set-up in all cases: key: “+” indicates that the compound exibits inhibitory activity; “−” indicates that low or no inhibitory activity was observed
[1] = biological target: E3 (His-APC11/APC2-"APC") (Homo sapiens, UniProt Q9NYG5+Q9UJX6); experiment: Plate-based E3 ligase assay (APC FLAG), auto-ubiquitination; assay type: biochemical; conditions: 8 concentrations tested
How it was run: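 His-APC11/APC2 auto-ubiquitination was run in casein-blocked nickel plates for 1 h at room temperature, with E1 at 5 ng/well, UbcH5c at 20 ng/well and APC at 100 ng/well. Buffer was 62.5 mM Tris pH 7.6, 3 mM MgCl2, 1 mM DTT, 2.5 mM ATP and Flag-ubiquitin at 100 ng/well. Detection used anti-Flag/HRP chemiluminescence, and IC50 was typically from 6 or 8 concentrations versus a DMSO control.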

HeLa cells [2] = experiment: Non-photographic proliferation analysis (Promega Cell titer Aqueous), HeLa; assay type: cell-based; conditions: 6 concentrations tested
Procedure: (§1) A549 (ATCC# CCL-185), HeLa (ATCC# CCL-2), HCT116 (ATCC# CCL-247), and H1299 (ATCC# CRL-5803) cells were maintained in T175 flasks following the ATCC recommended media and handling procedures. Flasks reaching approximately 70% confluency were trypsinized and resuspended in RPMI media (Cell-Gro catalog number 10-040-CM) modified to contain 5% FBS, 100 ug/mlPen/Strep (Cell-Gro catalog number 30-002-CL), and 0.3 mg/ml L-Glutamine (Cell-Gro catalog number 25-003-CL). A 20,000 cells/ml solution was made for plating. Cells were plated in black Packard 96 well plates by placing 100 μl per well (2,000 cells per well).
(§2) Compounds and additional media were added 24 hours after cell plating. A compound master plate was created with concentrations 500 times greater than the final concentration added to the cells. All compound testing was done in duplicate using 6.3 fold dilutions starting with 10 mM. All outside wells (and 4 internal wells) were DMSO controls. Taxol and at least one additional control were run on all plates. Three microliters of the compound master plate were added to deep well blocks containing 750 μl of RPMI media. One hundred microliters were transferred from the compound/media deep well blocks to the plated cells resulting in a 500 fold dilution of the compounds. Cells were grown at 37° C., 5% CO2 for 48 hours.
(§3) Some cell plates were treated with Promega Cell titer Aqueous 1 kit (promega—VWR catalog number G3580). In this case, 48 hours after the test compound were added, 100 μl of media were removed and 20 μl of cell titer reagent were added to all wells. Plates were incubated at 37° C. for 45 minutes prior to absorbance reads on the Wallac plate reader at 490 nm for 0.1 sec/well.

A549 cells [3] = experiment: Non-photographic proliferation analysis (Promega Cell titer Aqueous), A549; assay type: cell-based; conditions: 6 concentrations tested
Procedure: as §1, §2, §3

A549 cells [4] = experiment: Cell proliferation assay, photographic image analysis of proliferation, apoptosis and death (PAD assay), A549; assay type: cell-based; conditions: 6 concentrations tested
How it was run: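 Cells grown in RPMI with 5% FBS (2,000/well) and dosed 24 h after plating with 6.3-fold dilutions in duplicate (master plate 500× final, top 10 mM stock). After 48 h at 37 °C, cells formamide-fixed and DAPI-stained. Image analysis counted live, apoptotic and dead cells.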

HeLa cells [5] = experiment: Cell proliferation assay, photographic image analysis of proliferation, apoptosis and death (PAD assay), HeLa; assay type: cell-based; conditions: 6 concentrations tested
Procedure: as §1, §2
Cells to be analyzed by photography were fixed and stained. One hundred microliters of media were removed and 100 μl of 9.3% […] was added to each well. Plates were left on the benchtop for 45 minutes. A staining solution containing 1.55 μl of 1 mg/ml DAPI added to 18.75 ml PBS was warmed for 15 minutes at 37° C. The cells were aspirated prior to washing with 100 μl of PBS. Seventy microliters of PBS were aspirated and 170 μl of the DAPI solution were added to each well of fixed cells. Plates were left at room temperature for one hour then aspirated and washed twice with 100 μl of PBS. The stained cells were left at 4° C. for a minimum of 16 hours before photographic analysis with Array Scan II (Cellomics). Analysis of the photographic images to determine numbers of live cells (proliferation), apoptotic cells and dead cells, were according to the methods described in U.S. Provisional Patent Application Ser. No. 60/406,714, which incorporated herein in its entirety.

Chain of E3 (His-APC11/APC2-"APC") (Q9NYG5 whole entry): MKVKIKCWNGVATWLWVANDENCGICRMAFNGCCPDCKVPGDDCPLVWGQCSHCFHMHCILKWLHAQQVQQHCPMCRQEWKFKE
Chain of E3 (His-APC11/APC2-"APC") (Q9UJX6 whole entry): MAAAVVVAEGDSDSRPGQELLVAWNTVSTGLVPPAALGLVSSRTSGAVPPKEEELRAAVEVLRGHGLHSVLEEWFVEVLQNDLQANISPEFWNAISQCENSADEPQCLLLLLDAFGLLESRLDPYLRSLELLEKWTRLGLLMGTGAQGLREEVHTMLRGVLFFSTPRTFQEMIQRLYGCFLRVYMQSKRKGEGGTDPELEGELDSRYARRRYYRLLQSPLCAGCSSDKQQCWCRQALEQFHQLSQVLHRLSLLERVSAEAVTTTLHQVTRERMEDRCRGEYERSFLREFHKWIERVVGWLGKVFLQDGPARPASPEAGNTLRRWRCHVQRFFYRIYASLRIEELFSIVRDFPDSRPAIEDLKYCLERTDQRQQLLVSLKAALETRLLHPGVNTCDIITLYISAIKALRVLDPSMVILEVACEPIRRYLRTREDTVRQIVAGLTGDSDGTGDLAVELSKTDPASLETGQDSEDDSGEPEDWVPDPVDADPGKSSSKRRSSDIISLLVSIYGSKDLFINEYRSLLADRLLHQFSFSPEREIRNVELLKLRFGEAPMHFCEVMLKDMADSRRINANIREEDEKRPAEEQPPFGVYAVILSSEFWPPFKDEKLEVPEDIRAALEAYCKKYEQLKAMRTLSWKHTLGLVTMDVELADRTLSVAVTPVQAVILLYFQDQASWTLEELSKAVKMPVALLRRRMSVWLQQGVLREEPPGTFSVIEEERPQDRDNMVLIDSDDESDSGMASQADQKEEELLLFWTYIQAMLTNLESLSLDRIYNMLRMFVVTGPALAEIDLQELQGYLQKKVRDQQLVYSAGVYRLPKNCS

| SMILES | APC Flag 8 pt [1] | Cell Titer-Aqueous, HELA 6 pt (HeLa cells [2]) | Cell Titer-Aqueous, A549 6 pt (A549 cells [3]) | PAD Assay, A549 6 pt (A549 cells [4]) | PAD Assay, HELA 6 pt (HeLa cells [5]) |
| --- | --- | --- | --- | --- | --- |
| O=[N+]([O-])c1ccc(Oc2c(Cl)cc(S(=O)(=O)NC(=S)Nc3ccc(Cl)c(Cl)c3)cc2Cl)c(Cl)c1 [Compound 148, 3,5-dichloro-4-(2-chloro-4-nitrophenoxy)-N-{[(3,4-dichlorophenyl)amino]carbothioyl}benzenesulfonamide] | + | − | − |  |  |
| O=S(=O)(Nc1ccc(F)c(Cl)c1)c1ccc(Oc2ncc(C(F)(F)F)cc2Cl)cc1 [Example 256, N-(3-chloro-4-fluorophenyl)-4-{[3-chloro-5-(trifluoromethyl)pyridin-2-yl]oxy}benzene-sulfonamide] | + |  |  | + | + |
| O=[N+]([O-])c1ccc(F)c(NS(=O)(=O)c2ccc(Oc3ncc(C(F)(F)F)cc3Cl)cc2)c1 [Example 258, 4-{[3-chloro-5-(trifluoromethyl)pyridin-2-yl]oxy}-N-(2-fluoro-5-nitrophenyl)benzene-sulfonamide] | + |  |  | + | + |
| O=[N+]([O-])c1ccc(Oc2ccc(S(=O)(=O)Nc3cc(Cl)ccc3Cl)cc2Cl)c(C(F)(F)F)c1 [Example 261, 3-chloro-N-(2,5-dichlorophenyl)-4-(4-nitro-2-(trifluoromethyl)phenoxy]benzene-sulfonamide] | + |  |  | + | + |
| O=[N+]([O-])c1ccc(Oc2ccc(S(=O)(=O)Nc3ccc(F)cc3C(F)(F)F)cc2Cl)c(C(F)(F)F)c1 [Example 266, 3-chloro-N-[4-fluoro-2-(trifluoromethyl)phenyl]-4-[4-nitro-2-(trifluoromethyl)phenoxy]benzenesulfonamide] | + |  |  | + | + |
| O=[N+]([O-])c1ccc(Oc2ccc(S(=O)(=O)Nc3c(F)cccc3F)cc2Cl)c(C(F)(F)F)c1 [Example 268, 3-chloro-N-(2,6-difluorophenyl)-4-[4-nitro-2-(trifluoromethyl)phenoxy]benzene-sulfonamide] | + |  |  | + | + |
| O=S(=O)(Nc1cc(F)ccc1F)c1ccc(Oc2ncc(C(F)(F)F)cc2Cl)cc1 [Example 269, 4-{[3-chloro-5-(trifluoromethyl)pyridin-2-yl]oxy}-N-(2,5-difluorophenyl)benzene-sulfonamide] | + |  |  | − | − |
| O=[N+]([O-])c1ccc(Oc2ccc(S(=O)(=O)Nc3cccc(Br)c3)cc2Cl)c(C(F)(F)F)c1 [Example 270, N-(3-bRomophenyl)-3-chloro-4-[4-nitro-2-(trifluoromethyl)phenoxy]benzenesulfonamide] | + |  |  | + | + |
| Cc1c(Cl)cccc1S(=O)(=O)Nc1ccc(Oc2ccc([N+](=O)[O-])cc2)cc1 [Example 274, 3-chloro-2-methyl-N-[4-(4-nitrophenoxy)phenyl]benzenesulfonamide] | + |  |  | + | − |
| O=[N+]([O-])c1ccc(Oc2ccc(NS(=O)(=O)c3cccc(Cl)c3)cc2)cc1 [Example 275, 3-chloro-N-[4-(4-nitrophenoxy)phenyl] benzenesulfonamide] | + |  |  | + | − |
| O=S(=O)(Nc1ccc(Oc2ccc(Cl)cc2)cc1)c1cc(Cl)ccc1Cl [Example 276, 2,5-dichloro-N-[4-(4-chlorophenoxy)phenyl]benzenesulfonamide] | + |  |  | + | − |
| O=S(=O)(Nc1ccc(Oc2cc(C(F)(F)F)ccc2Cl)cc1F)c1cc(Cl)ccc1Cl [Example 277, 2,5-dichloro-N-{4-[2-chloro-5-(trifluoro-methyl)phenoxy]-2-fluorophenyl}benzene-sulfonamide] | + |  |  | + | + |
| O=S(=O)(Nc1ccc(Oc2ccc(F)cc2)c(Br)c1)c1cc(Cl)ccc1Cl [Example 278, N-[3-bRomo-4-(4-fluorophenoxy)phenyl]-2,5-dichlorobenzenesulfonamide] | + |  |  | + | + |
| O=S(=O)(Nc1ccc(Oc2c(Cl)cc(Cl)cc2Cl)cc1)c1cc(Cl)ccc1Cl [Example 279, 2,5-dichloro-N-[4-(2,4,6-trichlorophenoxy)phenyl]benzenesulfonamide] | + |  |  | + | + |
| Cc1c(Cl)cccc1S(=O)(=O)Nc1ccc(Oc2ccc(F)cc2)c(Br)c1 [Example 281, N-[3-bRomo-4-(4-fluorophenoxy)phenyl]-3-chloro-2-methylbenzenesulfonamide] | + |  |  | + | + |
| O=S(=O)(Nc1ccc(Oc2ccc(F)cc2)c(Br)c1)c1ccc(F)cc1 [Example 283, N-[3-bRomo-4-(4-fluorophenoxy)phenyl]-4-fluorobenzenesulfonamide] | + |  |  | + | − |
| O=S(=O)(Nc1ccc(Oc2ccc(F)cc2)c(Br)c1)c1ccc(OC(F)(F)F)cc1 [Example 284, N-[3-bRomo-4-(4-fluorophenoxy)phenyl]-4-(trifluoromethoxy)benzenesulfonamide] | + |  |  | + | + |
| O=S(=O)(Nc1ccc(Oc2cc(C(F)(F)F)ccc2Cl)cc1F)c1ccc(F)cc1 [Example 286, N-{4-[2-chloro-5-(trifluoromethyl)phenoxy]-2-fluorophenyl)-4-fluorobenzenesulfonamide] | + |  |  | + | + |
| O=[N+]([O-])c1ccc(Oc2c(Cl)cc(S(=O)(=O)Nc3ccc(Oc4cc(C(F)(F)F)ccc4Cl)cc3F)cc2Cl)c(Cl)c1 [Example 290, 3,5-dichloro-4-(2-chloro-4-nitrophenoxy)-N-{4-[2-chloro-5-(trifluoromethyl)phenoxy]-2-fluorophenyl}benzenesulfonamide] | + |  |  | + | + |
| O=[N+]([O-])c1ccc(Oc2c(Cl)cc(S(=O)(=O)Nc3ccc(Oc4ccc(F)cc4)c(Br)c3)cc2Cl)c(Cl)c1 [Example 291, N-[3-bRomo-4-(4-fluorophenoxy)phenyl]-3,5-dichloro-4-(2-chloro-4-nitrophenoxy) benzenesulfonamide] | + |  |  | + | + |
| O=S(=O)(Nc1ccc(Oc2ncc(C(F)(F)F)cc2Cl)cc1)c1ccccc1C(F)(F)F [Example 296, N-(4-(3-chloro-5-(trifluoromethyl)pyridin-2-yloxy)phenyl)-2-(trifluoromethyl)benzenesulfonamide] | − |  |  | + | − |
